# Reference: ChEMBL document CHEMBL1152560, “Substituted 2-arylbenzothiazoles as kinase inhibitors: hit-to-lead optimization” (Bioorg Med Chem, 2009)
# Tests used:
# [1] = biological target: T1, Ephrin type-B receptor 4 (Homo sapiens) (UniProt P54760); test: Residual activity of EPHB4 at 0.1 uM by microplate scintillation counting
# T1 sequence (whole entry): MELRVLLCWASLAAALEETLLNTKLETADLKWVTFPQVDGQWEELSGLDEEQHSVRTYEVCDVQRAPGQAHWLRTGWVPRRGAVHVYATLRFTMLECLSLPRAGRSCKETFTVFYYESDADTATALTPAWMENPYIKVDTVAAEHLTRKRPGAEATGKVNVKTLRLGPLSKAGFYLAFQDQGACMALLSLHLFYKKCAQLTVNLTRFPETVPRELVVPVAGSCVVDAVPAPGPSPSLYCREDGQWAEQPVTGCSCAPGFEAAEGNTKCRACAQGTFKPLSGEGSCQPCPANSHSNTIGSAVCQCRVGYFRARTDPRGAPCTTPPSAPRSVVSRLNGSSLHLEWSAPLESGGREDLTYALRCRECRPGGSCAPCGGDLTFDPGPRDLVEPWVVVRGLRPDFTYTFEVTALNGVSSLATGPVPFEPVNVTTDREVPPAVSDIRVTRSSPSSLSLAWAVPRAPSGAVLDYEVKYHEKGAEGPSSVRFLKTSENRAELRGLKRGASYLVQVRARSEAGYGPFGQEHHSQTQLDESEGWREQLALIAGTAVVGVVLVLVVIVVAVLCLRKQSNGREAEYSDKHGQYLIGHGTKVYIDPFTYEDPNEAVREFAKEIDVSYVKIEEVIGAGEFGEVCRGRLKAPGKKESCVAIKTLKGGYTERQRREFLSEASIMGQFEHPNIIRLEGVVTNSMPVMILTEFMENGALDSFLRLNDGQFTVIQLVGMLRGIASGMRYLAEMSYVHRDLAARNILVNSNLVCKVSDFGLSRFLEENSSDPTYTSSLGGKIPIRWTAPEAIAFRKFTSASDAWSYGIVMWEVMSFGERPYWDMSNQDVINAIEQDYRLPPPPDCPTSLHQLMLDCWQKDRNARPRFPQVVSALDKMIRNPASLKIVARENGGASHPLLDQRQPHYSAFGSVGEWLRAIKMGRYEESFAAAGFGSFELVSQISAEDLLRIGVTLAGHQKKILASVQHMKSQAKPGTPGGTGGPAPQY
# [2] = biological target: Receptor tyrosine-protein kinase erbB-2 (Homo sapiens, UniProt P04626); test: Residual activity of ERBB2 at 0.1 uM by microplate scintillation counting
# [3] = biological target: Tyrosine-protein kinase Fer (Homo sapiens) (UniProt P16591); test: Residual activity of FER at 0.1 uM by microplate scintillation counting
# Sequence of Tyrosine-protein kinase Fer (Homo sapiens) (P16591 whole entry, looked up): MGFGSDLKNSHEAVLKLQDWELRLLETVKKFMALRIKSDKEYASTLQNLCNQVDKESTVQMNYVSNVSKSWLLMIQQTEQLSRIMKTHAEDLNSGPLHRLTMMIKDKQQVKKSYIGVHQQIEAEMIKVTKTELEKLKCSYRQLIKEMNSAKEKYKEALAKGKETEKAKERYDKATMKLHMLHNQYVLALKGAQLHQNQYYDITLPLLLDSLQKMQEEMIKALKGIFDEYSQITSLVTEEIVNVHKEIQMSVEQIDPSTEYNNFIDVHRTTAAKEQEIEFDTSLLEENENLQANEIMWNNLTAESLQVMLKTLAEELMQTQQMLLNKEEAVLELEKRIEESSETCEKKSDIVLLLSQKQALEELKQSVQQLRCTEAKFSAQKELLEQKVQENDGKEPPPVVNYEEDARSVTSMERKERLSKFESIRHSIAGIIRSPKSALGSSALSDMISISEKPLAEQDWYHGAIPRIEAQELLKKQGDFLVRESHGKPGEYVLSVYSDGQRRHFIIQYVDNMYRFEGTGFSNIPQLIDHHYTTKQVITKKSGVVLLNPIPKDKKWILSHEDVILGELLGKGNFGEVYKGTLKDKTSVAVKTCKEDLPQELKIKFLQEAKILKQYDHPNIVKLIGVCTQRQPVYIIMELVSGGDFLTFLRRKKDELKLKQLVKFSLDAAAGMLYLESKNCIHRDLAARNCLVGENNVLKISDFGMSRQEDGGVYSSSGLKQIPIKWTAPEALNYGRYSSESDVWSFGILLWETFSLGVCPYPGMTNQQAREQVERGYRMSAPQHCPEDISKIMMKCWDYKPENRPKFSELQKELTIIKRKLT
# [4] = biological target: Tyrosine-protein kinase JAK2 (Homo sapiens) (UniProt O60674); test: Residual activity of JAK2 at 0.1 uM by microplate scintillation counting
# Sequence of Tyrosine-protein kinase JAK2 (Homo sapiens) (O60674 whole entry): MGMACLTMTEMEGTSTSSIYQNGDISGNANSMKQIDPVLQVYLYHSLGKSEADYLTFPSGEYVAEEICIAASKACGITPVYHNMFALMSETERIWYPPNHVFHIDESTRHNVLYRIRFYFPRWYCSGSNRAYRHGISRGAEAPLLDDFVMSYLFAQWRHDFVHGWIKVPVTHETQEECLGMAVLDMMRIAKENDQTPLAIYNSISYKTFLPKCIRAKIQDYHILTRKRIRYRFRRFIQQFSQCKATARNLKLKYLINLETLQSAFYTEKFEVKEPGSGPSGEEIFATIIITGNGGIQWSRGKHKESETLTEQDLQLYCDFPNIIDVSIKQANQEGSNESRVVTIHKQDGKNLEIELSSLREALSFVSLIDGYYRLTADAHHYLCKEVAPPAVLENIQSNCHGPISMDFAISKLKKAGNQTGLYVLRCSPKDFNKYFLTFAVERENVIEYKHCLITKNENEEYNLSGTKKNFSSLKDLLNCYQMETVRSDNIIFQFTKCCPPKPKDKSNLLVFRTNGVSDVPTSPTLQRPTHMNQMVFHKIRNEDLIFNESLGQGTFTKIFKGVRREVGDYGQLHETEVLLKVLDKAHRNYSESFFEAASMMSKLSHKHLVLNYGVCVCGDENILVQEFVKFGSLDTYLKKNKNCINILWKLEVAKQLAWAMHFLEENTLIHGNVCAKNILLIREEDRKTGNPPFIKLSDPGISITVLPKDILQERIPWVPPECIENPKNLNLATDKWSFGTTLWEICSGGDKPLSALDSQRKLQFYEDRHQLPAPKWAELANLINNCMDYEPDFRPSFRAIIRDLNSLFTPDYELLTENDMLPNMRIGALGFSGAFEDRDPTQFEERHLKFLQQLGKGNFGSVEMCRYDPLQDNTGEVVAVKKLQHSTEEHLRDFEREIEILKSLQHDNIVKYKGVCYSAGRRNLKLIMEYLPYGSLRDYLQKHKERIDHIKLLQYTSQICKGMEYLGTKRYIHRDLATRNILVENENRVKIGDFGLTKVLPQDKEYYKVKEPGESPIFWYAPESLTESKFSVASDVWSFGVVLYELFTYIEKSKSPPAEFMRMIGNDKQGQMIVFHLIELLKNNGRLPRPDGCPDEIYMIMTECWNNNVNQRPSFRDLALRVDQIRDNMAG
# [5] = biological target: MAP kinase-activated protein kinase 3 (Homo sapiens) (UniProt Q16644); test: Residual activity of MAPKAPK3 at 0.1 uM by microplate scintillation counting
# [6] = biological target: Maternal embryonic leucine zipper kinase (Homo sapiens) (UniProt Q14680); test: Residual activity of MELK at 1 uM by microplate scintillation counting
# Sequence of Maternal embryonic leucine zipper kinase (Homo sapiens) (Q14680 whole entry, looked up): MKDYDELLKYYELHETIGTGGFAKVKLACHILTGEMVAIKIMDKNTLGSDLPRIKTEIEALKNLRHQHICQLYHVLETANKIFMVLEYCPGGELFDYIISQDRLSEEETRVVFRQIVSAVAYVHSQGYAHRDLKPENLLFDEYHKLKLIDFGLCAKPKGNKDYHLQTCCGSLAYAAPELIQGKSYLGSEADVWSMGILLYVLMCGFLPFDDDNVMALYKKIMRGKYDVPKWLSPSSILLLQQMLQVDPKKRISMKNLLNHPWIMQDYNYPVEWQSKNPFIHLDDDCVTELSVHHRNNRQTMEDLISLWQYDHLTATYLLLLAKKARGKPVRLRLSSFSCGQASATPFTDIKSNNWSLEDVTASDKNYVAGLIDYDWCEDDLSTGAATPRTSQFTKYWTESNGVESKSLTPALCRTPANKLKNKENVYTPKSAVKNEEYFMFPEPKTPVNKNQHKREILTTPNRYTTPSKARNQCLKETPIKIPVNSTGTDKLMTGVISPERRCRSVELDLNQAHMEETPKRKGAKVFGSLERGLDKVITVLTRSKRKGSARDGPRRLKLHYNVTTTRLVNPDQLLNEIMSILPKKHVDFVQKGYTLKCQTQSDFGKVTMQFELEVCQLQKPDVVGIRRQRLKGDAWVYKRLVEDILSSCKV
# [7] = biological target: Serine/threonine-protein kinase PLK2 (Homo sapiens) (UniProt Q9NYY3); test: Residual activity of SNK at 1 uM by microplate scintillation counting
# Sequence of Serine/threonine-protein kinase PLK2 (Homo sapiens) (Q9NYY3 whole entry, looked up): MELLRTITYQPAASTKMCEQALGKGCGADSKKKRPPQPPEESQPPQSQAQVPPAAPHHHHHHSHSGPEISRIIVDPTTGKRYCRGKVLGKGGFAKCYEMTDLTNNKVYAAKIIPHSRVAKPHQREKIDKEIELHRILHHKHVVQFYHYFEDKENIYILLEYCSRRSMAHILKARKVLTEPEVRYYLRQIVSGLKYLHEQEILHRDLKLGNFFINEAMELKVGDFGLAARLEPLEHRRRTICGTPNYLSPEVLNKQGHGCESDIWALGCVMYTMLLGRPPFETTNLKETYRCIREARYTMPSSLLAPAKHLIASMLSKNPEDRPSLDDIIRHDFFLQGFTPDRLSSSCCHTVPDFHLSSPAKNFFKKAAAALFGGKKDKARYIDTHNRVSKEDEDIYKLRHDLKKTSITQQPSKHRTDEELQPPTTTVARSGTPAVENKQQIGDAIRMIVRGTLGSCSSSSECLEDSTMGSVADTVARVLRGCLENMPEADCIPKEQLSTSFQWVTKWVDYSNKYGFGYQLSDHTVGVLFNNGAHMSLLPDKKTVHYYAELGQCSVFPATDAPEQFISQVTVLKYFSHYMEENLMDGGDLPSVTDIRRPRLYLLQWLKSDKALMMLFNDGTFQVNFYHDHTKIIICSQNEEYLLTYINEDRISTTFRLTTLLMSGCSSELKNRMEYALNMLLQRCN
# [8] = biological target: Tyrosine-protein kinase SYK (Homo sapiens) (UniProt P43405); test: Residual activity of SYK at 1 uM by microplate scintillation counting
# [9] = biological target: NT-3 growth factor receptor (Homo sapiens) (UniProt Q16288); test: Residual activity of TRK-C at 1 uM by microplate scintillation counting
# [10] = biological target: Death-associated protein kinase 2 (Homo sapiens) (UniProt Q9UIK4); test: Residual activity of DAPK2 at 10 uM by microplate scintillation counting
# [11] = biological target: Activated CDC42 kinase 1 (Homo sapiens) (UniProt Q07912); test: Residual activity of ACK1 at 10 uM by microplate scintillation counting
# [12] = biological target: G protein-coupled receptor kinase 6 (Homo sapiens) (UniProt P43250); test: Residual activity of GRK6 at 10 uM by microplate scintillation counting
# Sequence of G protein-coupled receptor kinase 6 (Homo sapiens) (P43250 whole entry, looked up): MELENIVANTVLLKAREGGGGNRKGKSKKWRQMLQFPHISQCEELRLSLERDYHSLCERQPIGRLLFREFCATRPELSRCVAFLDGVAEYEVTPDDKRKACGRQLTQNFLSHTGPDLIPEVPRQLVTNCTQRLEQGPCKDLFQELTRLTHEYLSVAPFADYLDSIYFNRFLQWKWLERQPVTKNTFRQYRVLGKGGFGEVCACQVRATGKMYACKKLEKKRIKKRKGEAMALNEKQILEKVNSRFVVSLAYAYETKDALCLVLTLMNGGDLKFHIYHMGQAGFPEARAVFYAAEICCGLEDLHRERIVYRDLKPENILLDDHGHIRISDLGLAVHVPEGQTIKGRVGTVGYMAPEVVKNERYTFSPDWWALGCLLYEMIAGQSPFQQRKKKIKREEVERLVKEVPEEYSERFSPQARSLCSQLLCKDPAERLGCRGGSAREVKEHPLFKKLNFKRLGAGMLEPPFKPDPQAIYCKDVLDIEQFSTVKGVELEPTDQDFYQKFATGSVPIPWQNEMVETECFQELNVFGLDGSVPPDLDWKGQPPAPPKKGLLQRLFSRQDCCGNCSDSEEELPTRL
# [13] = biological target: Tyrosine-protein kinase HCK (Homo sapiens) (UniProt P08631); test: Residual activity of HCK at 10 uM by microplate scintillation counting
# [14] = biological target: Serine/threonine-protein kinase MARK2 (Homo sapiens) (UniProt Q7KZI7); test: Residual activity of MARK2 at 10 uM by microplate scintillation counting
# Sequence of Serine/threonine-protein kinase MARK2 (Homo sapiens) (Q7KZI7 whole entry): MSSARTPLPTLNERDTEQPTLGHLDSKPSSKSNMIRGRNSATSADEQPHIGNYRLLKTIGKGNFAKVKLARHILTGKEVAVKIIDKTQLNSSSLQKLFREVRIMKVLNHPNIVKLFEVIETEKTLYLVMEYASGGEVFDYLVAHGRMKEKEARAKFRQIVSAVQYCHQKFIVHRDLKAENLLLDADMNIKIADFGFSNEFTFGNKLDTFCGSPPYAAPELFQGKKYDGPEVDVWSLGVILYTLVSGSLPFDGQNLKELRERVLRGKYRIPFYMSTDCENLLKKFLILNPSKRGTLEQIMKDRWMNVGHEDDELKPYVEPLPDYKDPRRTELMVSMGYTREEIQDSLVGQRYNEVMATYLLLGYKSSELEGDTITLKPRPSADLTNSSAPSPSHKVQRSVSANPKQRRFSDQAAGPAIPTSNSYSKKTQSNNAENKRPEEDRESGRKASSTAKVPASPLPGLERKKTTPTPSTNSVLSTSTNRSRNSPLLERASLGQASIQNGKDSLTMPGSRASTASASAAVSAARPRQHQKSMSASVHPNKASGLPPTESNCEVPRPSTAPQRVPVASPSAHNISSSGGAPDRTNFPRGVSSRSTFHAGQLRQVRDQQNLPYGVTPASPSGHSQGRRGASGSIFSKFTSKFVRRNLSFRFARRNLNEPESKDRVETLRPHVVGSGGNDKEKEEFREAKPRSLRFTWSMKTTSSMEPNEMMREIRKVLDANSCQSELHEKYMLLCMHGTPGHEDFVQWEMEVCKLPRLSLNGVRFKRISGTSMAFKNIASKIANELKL
# [15] = biological target: Protein kinase C eta type (Homo sapiens) (UniProt P24723); test: Residual activity of PKCeta at 10 uM by microplate scintillation counting
# [16] = biological target: T2, Serine/threonine-protein kinase D1 (Homo sapiens) (UniProt Q15139); test: Residual activity of PKCmu at 10 uM by microplate scintillation counting
# T2 sequence (whole entry): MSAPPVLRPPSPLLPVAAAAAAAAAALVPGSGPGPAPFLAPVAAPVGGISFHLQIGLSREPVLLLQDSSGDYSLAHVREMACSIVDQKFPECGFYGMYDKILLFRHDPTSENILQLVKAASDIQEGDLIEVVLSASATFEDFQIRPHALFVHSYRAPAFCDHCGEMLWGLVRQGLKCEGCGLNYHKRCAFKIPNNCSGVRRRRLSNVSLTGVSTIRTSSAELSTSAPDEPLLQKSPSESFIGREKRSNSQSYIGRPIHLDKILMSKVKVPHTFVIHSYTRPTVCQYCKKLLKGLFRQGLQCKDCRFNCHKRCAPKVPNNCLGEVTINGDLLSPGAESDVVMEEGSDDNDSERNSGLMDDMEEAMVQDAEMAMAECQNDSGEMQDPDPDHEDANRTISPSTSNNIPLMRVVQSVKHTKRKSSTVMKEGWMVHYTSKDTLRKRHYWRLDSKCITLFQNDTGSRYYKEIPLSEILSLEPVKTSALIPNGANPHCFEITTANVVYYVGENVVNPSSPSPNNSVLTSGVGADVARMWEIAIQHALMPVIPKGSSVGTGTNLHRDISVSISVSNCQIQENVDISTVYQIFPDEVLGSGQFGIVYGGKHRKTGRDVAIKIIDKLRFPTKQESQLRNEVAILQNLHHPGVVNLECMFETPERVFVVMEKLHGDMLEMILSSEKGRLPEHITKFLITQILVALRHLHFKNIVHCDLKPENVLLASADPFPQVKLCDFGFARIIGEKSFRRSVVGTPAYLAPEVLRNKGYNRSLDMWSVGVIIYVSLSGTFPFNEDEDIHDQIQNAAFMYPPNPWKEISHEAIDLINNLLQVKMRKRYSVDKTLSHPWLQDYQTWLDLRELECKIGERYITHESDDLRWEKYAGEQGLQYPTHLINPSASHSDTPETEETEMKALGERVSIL
# [17] = biological target: Casein kinase I isoform gamma-2 (Homo sapiens) (UniProt P78368); test: Residual activity of CK1gamma2 at 0.1 uM by microplate scintillation counting
# Sequence of Casein kinase I isoform gamma-2 (Homo sapiens) (P78368 whole entry, looked up, canonical isoform): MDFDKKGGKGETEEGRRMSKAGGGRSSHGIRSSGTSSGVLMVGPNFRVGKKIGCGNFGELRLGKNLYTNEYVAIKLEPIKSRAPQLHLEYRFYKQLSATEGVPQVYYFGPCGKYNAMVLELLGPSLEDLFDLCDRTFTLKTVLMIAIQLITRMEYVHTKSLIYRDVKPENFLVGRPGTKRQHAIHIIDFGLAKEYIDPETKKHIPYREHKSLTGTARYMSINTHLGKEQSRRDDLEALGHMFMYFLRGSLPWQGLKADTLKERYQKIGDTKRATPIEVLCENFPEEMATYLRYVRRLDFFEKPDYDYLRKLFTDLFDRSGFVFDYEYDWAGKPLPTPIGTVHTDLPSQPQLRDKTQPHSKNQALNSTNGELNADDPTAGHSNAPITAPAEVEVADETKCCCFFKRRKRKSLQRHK
# [18] = biological target: Macrophage-stimulating protein receptor (Homo sapiens) (UniProt Q04912); test: Residual activity of RON at 0.1 uM by microplate scintillation counting
residual activity [1] [%],residual activity [2] [%],residual activity [3] [%],residual activity [4] [%],residual activity [5] [%],residual activity [6] [%],residual activity [7] [%],residual activity [8] [%],residual activity [9] [%],residual activity [11] [%],residual activity [12] [%],residual activity [13] [%],residual activity [14] [%],residual activity [15] [%],residual activity [16] [%],residual activity [17] [%],residual activity [18] [%],SMILES,residual activity [10] [%]
98,112,96,92,93,78,86,97,124,31,105,187,72,81,126,93,90,COc1cc2c(Oc3ccc(-c4nc5ccccc5s4)cc3)ncnc2cc1OCCCN1CCCC1,20
108,103,104,90,91,106,86,95,104,35,91,155,67,71,122,93,74,COc1cc2c(Oc3ccc(-c4nc5ccccc5s4)cc3)ncnc2cc1OCCCN1CCN(C)CC1,15
98,97,108,102,94,68,94,102,104,40,104,78,60,55,111,90,72,COc1cc2c(Oc3ccc(-c4nc5ccccc5s4)cc3F)ncnc2cc1OCCCN1CCN(C)CC1,16
